Source: publication PMC12005229, “Final results from the phase Ia/Ib study of the novel bromodomain and extra-terminal domain inhibitor, BI 894999, in patients with advanced solid tumors or diffuse large B-cell lymphoma” (ESMO Open, 2025)

Key:
[1] = system: patients with DLBCL; assay: phase Ia DLBCL extension: tumor response (RECIL 2017); format: in vivo, human
Protocol: PFS was measured for the period from the start of treatment to the occurrence of progressive disease or death. Tumor response was measured using RECIST 1.1[28] for patients with solid tumors and RECIL 2017[29] for those with DLBCL. OS was assessed in patients with NUT carcinoma; the OS status was to continue until 12 months after the end of the study.
Supplementary Table 1. […]
• Objective response (OR), defined as complete response (CR) or partial response (PR) with tumor assessment during treatment period for each schedule according to Response Evaluation Criteria in Solid Tumors (RECIST) version 1.1. For DLBCL patients, a minor response according to Response Evaluation Criteria in Lymphoma (RECIL) 2017 was not part of an OR […]
• Progression-free survival (PFS), defined from date of start of BI 894999 to the date of objective disease progression or death, whichever was earlier, with tumor assessment every 2 cycles (every 6 weeks for Schedule B if no delays or as close as possible to the end of the second of the 2 cycles of treatment if there was a delay) during the treatment period […]
AUC0–24, area under the plasma concentration–time curve over the 24-hour dosing interval; AUCτ, ss , area under the plasma concentration–time curve over the dosing interval τ at steady state; AE, adverse event; Cmax, maximal exposure; Cma x , s s , maximal exposure at steady state; DLBCL, diffuse large B- cell lymphoma; DLT, dose-limiting toxicity; mCRPC, metastatic castration-resistant prostate cancer; NUT, nuclear protein in […]

[2] = system: BRD4-BD2; design: method as in PMID 35444289; settings: read-out: IC50, inhibition of interaction of acetylated histone H4-derived peptide with BRD4-BD2; cited from earlier work

Question: Which patients not assessable ([1]; phase Ia DLBCL n = 18) does the source give for `CNc1nc(-c2nc3ccc(N4CCN(C)CC4)cc3n2Cc2ccccc2)cn2c(C)nnc12` [BI 894999] here?
Answer: 27.8%

Question: What about the “patients with partial response (BOR)” value ([1]; phase Ia DLBCL n = 18) of the same compound?
Answer: 5.6%

Question: And the “patients with progressive disease” value ([1]; phase Ia DLBCL n = 18)?
Answer: 50.0%

Question: What about the “patients with stable disease” value ([1]; phase Ia DLBCL n = 18) of the same compound?
Answer: 16.7%

Question: What about the “duration of response (DOR) of confirmed PR” value ([1]; phase Ia DLBCL, one patient) of the same compound?
Answer: 49 days

Question: What about the “Best overall response: complete response” value ([1]; phase Ia DLBCL, schedule B) of the same compound?
Answer: 0 (0.0) n (%)

Question: What about the “Best overall response: not evaluable” value ([1]; phase Ia DLBCL, schedule B) of the same compound?
Answer: 5 (35.7) n (%)

Question: And the “Best overall response: partial response” value ([1]; phase Ia DLBCL, schedule B)?
Answer: 1 (7.1) n (%)

Question: What about the “Best overall response: progressive disease” value ([1]; phase Ia DLBCL, schedule B) of the same compound?
Answer: 6 (42.9) n (%)

Question: And the “Best overall response: stable disease” value ([1]; phase Ia DLBCL, schedule B)?
Answer: 2 (14.3) n (%)

Question: And the Disease control ([1]; phase Ia DLBCL, schedule B)?
Answer: 3 (21.4) n (%)

Question: And the Objective response ([1]; phase Ia DLBCL, schedule B)?
Answer: 1 (7.1) n (%)

Question: And the “Best overall response: complete response” value ([1]; phase Ia DLBCL, schedule C)?
Answer: 0 (0.0) n (%)

Question: And the “Best overall response: not evaluable” value ([1]; phase Ia DLBCL, schedule C)?
Answer: 0 (0.0) n (%)

Question: What about the “Best overall response: partial response” value ([1]; phase Ia DLBCL, schedule C) of the same compound?
Answer: 0 (0.0) n (%)

Question: What about the “Best overall response: progressive disease” value ([1]; phase Ia DLBCL, schedule C) of the same compound?
Answer: 3 (75.0) n (%)

Question: And the “Best overall response: stable disease” value ([1]; phase Ia DLBCL, schedule C)?
Answer: 1 (25.0) n (%)

Question: And the Disease control ([1]; phase Ia DLBCL, schedule C)?
Answer: 1 (25.0) n (%)

Question: And the “Best overall response: complete response” value ([1]; phase Ia DLBCL, total)?
Answer: 0 (0.0) n (%)

Question: And the “Best overall response: not evaluable” value ([1]; phase Ia DLBCL, total)?
Answer: 5 (27.8) n (%)

Question: What about the “Best overall response: partial response” value ([1]; phase Ia DLBCL, total) of the same compound?
Answer: 1 (5.6) n (%)

Question: What about the “Best overall response: progressive disease” value ([1]; phase Ia DLBCL, total) of the same compound?
Answer: 9 (50.0) n (%)

Question: And the “Best overall response: stable disease” value ([1]; phase Ia DLBCL, total)?
Answer: 3 (16.7) n (%)

Question: What about the Disease control ([1]; phase Ia DLBCL, total) of the same compound?
Answer: 4 (22.2) n (%)

Question: And the Objective response ([1]; phase Ia DLBCL, total)?
Answer: 1 (5.6) n (%)

Question: And the IC50 [2]?
Answer: 41 ± 30 nM
